Patent US6933290B2, “2-{N-(2-amino-3-(heteroaryl or aryl)propionyl)-aminoacyl}-amino}-alkylboronic acid derivatives” (Novartis AG, priority 2001, dated 2005)

What follows are compounds tested against T1, chymotrypsin-like activity of the 20S proteasome (Homo sapiens, UniProt P20618+P28074) (assay: Inhibition of the chymotrypsin-like activity of the 20S proteasome (Suc-LLVY-AMC hydrolysis)). Conditions: purified human placenta 20S proteasome, Suc-LLVY-AMC substrate, read-out: IC50 [μM] (results of one or two experiments).
T1 construct: purified human placenta 20S proteasome; tissue Diabetes Forschungsinstitut, Düsseldorf, Germany; host or cells: human placenta
Format: biochemical
Excerpt: It is based on the hydrolysis of the fluorogenic peptide Suc-LLVY-AMC (Succinyl-leucine-leucine-vatine-tyrosine-7-amino-4-methyl-coumarin), which is cleaved exclusively at the Y-AMC bond by the 20S proteasome. Hydrolysis of this peptide is accompanied by an increase in fluorescence intensity (λex (excitation wavelength): 355 nm; μem (emission wavelength): 460 nm) due to release of the […] that accompanies diffusion apart of the hydrolysis product Suc-LLVY.
2 μl of a 1 mM solution of a test compound in DMSO (dimethylsulfoxide, 20 μM final concentration in the well) are preincubated for 60 min at room temperature in black 96-well microtiter plates together with a mixture of 1 μl purified human placenta 20S proteasome (Diabetes Forschungsinstitut, DÜsseldorf, Germany; about 100 ng proteasome, depending on the proteasome preparation) and 47 μl buffer-Ca (5 mM CaCl2, 20 mM Tris/HCl (Tris-(hydroxymethyl)-amino-methane hydrochloride) pH 8.0). 3 μl of a 2.67 mM solution of Suc-LLVY-AMC (Bachem, Switzerland) in DMSO (80 μM final concentration in the well) and 47 μl buffer-Ca are mixed and added. The resulting mixture is incubated for 3-24 h at 37° C. If desired, proteolysis of the substrate can be stopped by addition of 50 μl stop solution (100 mM monochloroacetic acid, 130 mM NaOH, 100 mM acetic acid, pH=4.3). The fluorescence is monitored with a FLUOROSKAN ASCENT™ microtiter plate reader.
For each measurement series two control experiments are carried out: • 1.) 0% value: 2 μl DMSO are used in the above described assay instead of 2 μl of a 1 mM solution of a test compound in DMSO and 48 μl buffer-Ca instead of a mixture of 47 μl buffer-Ca and 1 μl purified proteasome. • 2.) 100% value: in the above described assay 2 μl DMSO are used instead of 2 μl of a 1 mM solution of the test compound in DMSO. Calculation [formula]
The IC50 value is defined as that concentration of a compound at which the remaining activity is 50% compared to the […].

Row | Structure (SMILES) | IC50 [µM]
1 | COc1cc(C[C@H](Nc2cccc(C(C)C)c2)C(=O)N[C@H](C(=O)N[C@@H](CC(C)C)B2O[C@@H]3C[C@@H]4C[C@@H](C4(C)C)[C@]3(C)O2)C(C)C)cc(OC)c1OC [Example 11, (S)-2-[(S)-2-(3-Isopropyl-phenylamino)-3-(3,4,5-trimethoxy-phenyl)-propionylamino]-3-methyl-N-[(R)-3-methyl-1-((1S,2S,6R,8S)-2,9,9-trimethyl-3,5-dioxa-4-bora-tricyclo[6.1.1.0^2,6]dec-4-yl)-butyl]-butyramide] | 0.0039
2 | COc1ccc(C[C@H](Nc2cccc(-c3ccccc3)c2)C(=O)N[C@@H](C)C(=O)N[C@@H](CC(C)C)B2O[C@@H]3C[C@@H]4C[C@@H](C4(C)C)[C@]3(C)O2)cc1 [Example 41, (S)-2-(Biphenyl-3-ylamino)-3-(4-methoxy-phenyl)-N-{(S)-1-[(R)-3-methyl-1-((1S,2S,6R,8S)-2,9,9-trimethyl-3,5-dioxa-4-bora-tricyclo[6.1.1.0^2,6]dec-4-yl)-butylcarbamoyl]-ethyl}-propionamide] | 0.0012
3 | COc1ccc(C[C@H](Nc2cccc(-c3ccccc3)c2)C(=O)N[C@@H](CC(C)C)C(=O)N[C@@H](CC(C)C)B2O[C@@H]3C[C@@H]4C[C@@H](C4(C)C)[C@]3(C)O2)cc1 [Example 35, (S)-2-[(S)-2-(Biphenyl-3-ylamino)-3-(4-methoxy-phenyl)-propionylamino]-4-methyl-pentanoic acid [(R)-3-methyl-1-((1S,2S,6R,8S)-2,9,9-trimethyl-3,5-dioxa-4-bora-tricyclo[6.1.1.0^2,6]dec-4-yl)-butyl]-amide] | 0.0023
4 | COc1ccc(C[C@H](Nc2cccc(-c3ccccc3)c2)C(=O)N[C@H](C(=O)N[C@@H](CC(C)C)B2O[C@@H]3C[C@@H]4C[C@@H](C4(C)C)[C@]3(C)O2)C(C)C)c(OC)c1OC [Example 15, (S)-2-[(S)-2-(Biphenyl-3-ylamino)-3-(2,3,4-trimethoxy-phenyl)-propionylamino]-3-methyl-N-[(R)-3-methyl-1-((1S,2S,6R,8S)-2,9,9-trimethyl-3,5-dioxa-4-bora-tricyclo[6.1.1.0^2,6]dec-4-yl)-butyl]-butyramide] | 0.0071
5 | CC(C)C[C@H](NC(=O)[C@@H](NC(=O)[C@H](Cc1ccc(OCc2ccccc2)cc1)Nc1cccc(-c2ccccc2)c1)C(C)C)B(O)O [Example 18, (R)-1-{(S)-2-[(S)-3-(4-Benzyloxy-phenyl)-2-(biphenyl-3-ylamino)-propionylamino]-3-methyl-butyrylamino}-3-methyl-butylboronic acid] | 0.0015
6 | COc1cc(C[C@H](Nc2cccc(-c3ccccc3)c2)C(=O)N[C@H](C(=O)NC(CC(C)C)B(O)O)C(C)C)cc(OC)c1OC (stereo partly drawn) [Example 24, 1-{(S)-2-[(S)-2-(Biphenyl-3-ylamino)-3-(3,4,5-trimethoxy-phenyl)-propionylamino]-3-methyl-butyrylamino}-3-methyl-butylboronic acid] | 0.0021
7 | COc1cc(C[C@H](Nc2cccc(-c3ccccc3)c2)C(=O)N[C@@H](CC(C)C)C(=O)N[C@@H](CC(C)C)B2O[C@@H]3C[C@@H]4C[C@@H](C4(C)C)[C@]3(C)O2)cc(OC)c1OC [Example 31, (S)-2-[(S)-2-(Biphenyl-3-ylamino)-3-(3,4,5-trimethoxy-phenyl)-propionylamino]-4-methyl-pentanoic acid [(R)-3-methyl-1-((1S,2S,6R,8S)-2,9,9-trimethyl-3,5-dioxa-4-bora-tricyclo[6.1.1.0^2,6]dec-4-yl)-butyl]-amide] | 0.0022
8 | COc1cc(C[C@H](Nc2cccc(C(C)C)c2)C(=O)N[C@@H](C)C(=O)N[C@@H](CC(C)C)B2O[C@@H]3C[C@@H]4C[C@@H](C4(C)C)[C@]3(C)O2)cc(OC)c1OC [Example 45, (S)-2-(3-Isopropyl-phenylamino)-N-{(S)-1-[(R)-3-methyl-1-((1S,2S,6R,8S)-2,9,9-trimethyl-3,5-dioxa-4-bora-tricyclo[6.1.1.0^2,6]dec-4-yl)-butylcarbamoyl]-ethyl}-3-(3,4,5-trimethoxy-phenyl)-propionamide] | 0.0013
